Data set [1] concerns the target T1, NEDD8 activating enzyme (Homo sapiens, UniProt Q8TBC4).
T1 sequence (Q8TBC4 whole entry): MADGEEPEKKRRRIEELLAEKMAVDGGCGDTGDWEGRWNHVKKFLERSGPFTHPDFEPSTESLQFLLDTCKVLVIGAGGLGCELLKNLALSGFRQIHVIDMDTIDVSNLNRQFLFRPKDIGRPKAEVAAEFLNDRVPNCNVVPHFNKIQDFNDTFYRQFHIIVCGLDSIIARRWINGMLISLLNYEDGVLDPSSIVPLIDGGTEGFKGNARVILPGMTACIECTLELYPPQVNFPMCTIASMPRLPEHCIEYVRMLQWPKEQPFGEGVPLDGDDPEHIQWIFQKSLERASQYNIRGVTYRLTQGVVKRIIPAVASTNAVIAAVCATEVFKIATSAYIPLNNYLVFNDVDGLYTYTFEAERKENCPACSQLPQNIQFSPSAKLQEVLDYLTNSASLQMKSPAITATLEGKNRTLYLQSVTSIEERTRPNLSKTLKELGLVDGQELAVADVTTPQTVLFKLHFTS
T1 sequence (Q13564 whole entry): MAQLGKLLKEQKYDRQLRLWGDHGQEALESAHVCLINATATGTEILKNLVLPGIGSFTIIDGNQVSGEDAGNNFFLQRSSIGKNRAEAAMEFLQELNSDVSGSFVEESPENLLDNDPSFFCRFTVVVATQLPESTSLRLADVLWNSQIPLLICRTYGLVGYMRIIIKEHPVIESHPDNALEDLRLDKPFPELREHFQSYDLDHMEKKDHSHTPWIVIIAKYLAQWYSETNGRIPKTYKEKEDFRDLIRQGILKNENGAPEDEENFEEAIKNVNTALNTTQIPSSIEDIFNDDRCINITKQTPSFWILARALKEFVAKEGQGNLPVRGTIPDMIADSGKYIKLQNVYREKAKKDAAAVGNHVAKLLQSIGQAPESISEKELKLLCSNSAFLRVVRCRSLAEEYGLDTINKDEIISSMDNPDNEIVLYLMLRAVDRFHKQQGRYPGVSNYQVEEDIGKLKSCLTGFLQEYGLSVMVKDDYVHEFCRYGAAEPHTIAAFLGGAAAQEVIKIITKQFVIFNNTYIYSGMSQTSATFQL
Put plainly: Inhibition of recombinant human NAE using GST-tagged Ubc12 and Flag-tagged Nedd8 incubated for 105 mins by HTRF assay. It counts as protein-complex assay. In general terms: In TR-FRET formats the signal depends on donor and acceptor labels being close together.

Data set [2] can be described thus: AUC (last) in plasma of female Ncr nude mouse bearing HCT116 tumor xenografts at 30 mg/kg, sc dosed as single administration measured up to 24 hrs post dose. Format: ADME, organism-based. Set-up: dose 30 mg/kg, time 0 - last, route subcutaneous.
Data set [3] relates to Mus musculus. Put plainly: Inhibition of NAE in female Ncr nude mouse bearing HCT116 tumor xenografts assessed as increase in Nedd8-Cullin levels at 30 mg/kg, sc dosed as single administration measured up to 24 hrs post dose. Format: functional, organism-based.
Data set [4] is described as follows: Cmax in plasma of female Ncr nude mouse bearing HCT116 tumor xenografts at 30 mg/kg, sc dosed as single administration measured up to 24 hrs post dose. Format: ADME, organism-based. Set-up: dose 30 mg/kg, route subcutaneous.
Data set [5] in a line: Cmax in plasma of female Ncr nude mouse bearing HCT116 tumor xenografts at 10 mg/kg, sc dosed as single administration measured up to 24 hrs post dose. Format: ADME, organism-based. Set-up: dose 10 mg/kg, route subcutaneous.
Data set [6] can be described thus: AUC (last) in plasma of female Ncr nude mouse bearing HCT116 tumor xenografts at 10 mg/kg, sc dosed as single administration measured up to 24 hrs post dose. Format: ADME, organism-based. Set-up: dose 10 mg/kg, time 0 - last, route subcutaneous.
Data set [7] deals with Mus musculus. Put plainly: Inhibition of NAE in female Ncr nude mouse bearing HCT116 tumor xenografts assessed as increase in Nedd8-Cullin levels at 10 mg/kg, sc dosed as single administration measured up to 24 hrs post dose. It counts as functional, organism-based.

Experimental findings from ChEMBL document CHEMBL4476882, “Inhibitors of nedd8-activating enzyme” (2013) are described below.

pIC50: −log10 of the molar value. The source made the active and inactive calls. No cut-off for these calls is given here.

What is called pIC50 is the IC50 on a negative log10 scale, so that one unit is a factor of ten. As usually defined, the AUC(0-t) is the area under the concentration-time curve up to a stated or last time point. Low values mean low exposure, high ones high exposure. A word on the Cmax: it is the highest concentration seen after dosing.

`NS(=O)(=O)OC[C@H]1C[C@@H](Nc2ncnc(N[C@H]3CCc4ccccc43)n2)[C@H](O)[C@@H]1O`: the pIC50 in data set [1] was not below 6.30. Still for that read-out and setting: the figure for `COc1cccc(-c2nc3c(N[C@@H]4C[C@@H](COS(N)(=O)=O)[C@@H](O)C4)ncnc3[nH]2)c1OC` is not below 6.30; for `CN(C)C(=O)[C@H]1Cc2ccccc2[C@H]1Nc1cc(O[C@@H]2C[C@@H](COS(N)(=O)=O)[C@@H](O)C2)ncn1` it is 5.00 to 6.30. Consider `CO[C@H]1Cc2ccccc2[C@H]1Nc1cc(O[C@@H]2C[C@@H](COS(N)(=O)=O)[C@@H](O)C2)ncn1`, for which the AUC(0-t) at 24 h in data set [2] was found to be 26.3 µM·h. In data set [3], the inhibition result is “Active”. In data set [4], this molecule registered a Cmax of 27.1 µM.

Consider `CO[C@H]1Cc2cc(Cl)ccc2C1Nc1cc(O[C@@H]2CC(COS(N)(=O)=O)[C@@H](O)C2)ncn1` (single isomer, unassigned), for which the values for the AUC(0-t) at 24 h in data set [2] and in data set [6] were 54.8 µM·h and 24.5 µM·h, respectively. Besides, the inhibition entry in data set [3] and in data set [7] was “Active” in each case. Also, the figures for the Cmax in data set [5] and in data set [4] were 10.4 µM and 24.2 µM, respectively.

Turning to `NS(=O)(=O)OC[C@@H]1C[C@@H](Nc2ncnc3[nH]c(-c4ccc(Cl)cc4)nc23)C[C@@H]1O`, the pIC50 in data set [1] was not below 6.30. With `NS(=O)(=O)OC[C@@H]1C[C@@H](Oc2cc(N[C@H]3CCc4ccccc43)ncn2)C[C@@H]1O`, the pIC50 in data set [1] was less than 5.00.

For the molecule `Cc1c(N[C@H]2CCc3ccccc32)ncnc1O[C@@H]1C[C@@H](COS(N)(=O)=O)[C@@H](O)C1`, in data set [1], the pIC50 is not below 6.30. The same measure, in the same setting: the same measure for `COc1ccccc1-c1nc2c(N[C@@H]3C[C@@H](COS(N)(=O)=O)[C@@H](O)C3)ncnc2[nH]1`: not below 6.30; for `CO[C@H]1CCc2ccccc2C1Nc1cc(O[C@H]2CC(O)[C@H](COS(N)(=O)=O)C2)ncn1` (single isomer, unassigned): not below 6.30.
